Source: patent US8361510B2, “Nanogels for cellular delivery of therapeutics” (Georgia Tech Research Corporation, priority 2008, dated 2013)
Where no end group is shown, it is not given here.

Assays:
Format in all cases: cell-based
[1] = tested on: Hey cells; assay: Trypan blue exclusion assay
Procedure: Toxicity Studies—Trypan blue exclusion assay. Hey cells were plated onto an 8-well chamber slide (1×10^4 cells/well) and allowed to adhere overnight at 37° C. and 5% CO2. The media was removed, the wells washed with PBS, and the medium replaced. PNIPMAm nanogels, YSA-conjugated nanogels, and SCR-conjugated nanogels were added to cells and incubated for 72 h. Untreated cells were used as controls. After 72 h, the cells washed with PBS, and a 1:1 solution of trypan blue was added to each well. After 1 min, the trypan blue was removed, the cells were washed with PBS, fixed with 2% (v/v) paraformaldehyde, and air dried. Each well was then viewed via bright field microscopy to determine the number of stained (dead) versus unstained cells. Five fields were viewed for each treatment.

[2] = tested on: Hey cells; assay: Flow cytometry of nanogel binding/uptake; settings: 0.8 mg/mL nanogels, four hours
Procedure: Flow cytometry. Hey cells were plated at 2.5×10^5 cells/well in a 12-well, cell culture plate. Cells were allowed to adhere overnight in an incubator at 37° C. in a 5% CO2 atmosphere. Cells were washed, and fresh medium was added containing YSA-pNIPMAm or SCR-pNIPMAm nanogels at a concentration of 0.8 mg/mL and incubated for four hours. Following incubation, the cells were washed with PBS and removed from the plate by Trypsin-EDTA treatment. The cells were washed with PBS and fixed with 2% (v/v) paraformaldehyde. Cells were analyzed using a LSR Flow Cytometer (BD Biosciences). Data analysis was carried out using FlowJo software.

[3] = tested on: Hey cells; assay: Chemosensitization to docetaxel (Tox8), Hey cells; settings: control treatments
Procedure: Treatment with docetaxel. Hey or SK-OV-3 cells were plated in 96-well cell culture plates at a concentration of 1×10^4 cells/well. Hey or SK-OV-3 cells were subjected to nanogel delivery of siRNA at nanogel concentrations of 1000, 100, 10, and 1 μg/mL. Forty-eight hours after siRNA delivery, docetaxel was added to Hey or SK-OV-3 cells at concentrations ranging from 0.01-1000 nM. Treatment wells were set up in triplicate, and the cells were incubated with docetaxel for an additional 4 days. After treatment, the cells were washed with PBS, and 100 μL of medium was added back to the wells. To this, 10 μL of Tox8 was added to determine cell viability. The cells were incubated with the Tox8 reagent according to the manufacturer's instructions. The fluorescence was measured ([…]) by a Spectramax Gemini Fluorescence Microplate Reader (Molecular Devices, Sunnyvale, Calif.). Wells without cells but with Tox8 were used as controls and subtracted from all treatments as background. Each experiment was performed in duplicate.
Statistical analysis. Statistical analysis of the immunoblot data was performed using a non-parametric ANOVA (Kruskal Wallis) test. If significance was indicated, a Dunn's post-test was used to determine significance between groups. […]

[4] = tested on: EGFR; assay: EGFR expression by immunoblotting in Hey cells; settings: Example 2
Procedure: Immunoblotting. Hey cells were plated into 6-well plates (5×10^5/well) and allowed to adhere overnight at 37° C., 5% CO2. The cells were lysed with 100 μL of lysis buffer (50 mM Tris-HCl, pH 7.5, 150 mM NaCl, 2 mM EDTA (Fisher), 2 mM EGTA (Fisher), 1 mM sodium orthovanadate, 2.5 mM sodium pyrophosphate, 1 mM β-gycerolphosphate, 1 mM phenylmethanesulfonyl fluoride, 10 μg/mL aprotinin, 10 μg/mL leupeptin, 1% Triton X-100, and 5% glycerol), and the cell lysates sonicated four times for five seconds each. The lysates were cleared by centrifugation at 11,000×g rcf for […] at 4° C. Cell lysates were prepared for analysis by the addition of an equal volume of Laemmli 2× sample buffer. The samples were heated to 95° C. for […] to denature the proteins. The proteins were separated on a 10% SDS-PAGE gel and transferred onto nitrocellulose. The blots were blocked with either 5% nonfat dry milk (NFDM) or 5% bovine serum albumin (BSA) in 10 mM Tris-buffered saline, pH 7.5 plus 1% Tween 20 (TBST, BioRad) for 1 hour at room temperature. The blots were probed with anti-EGFR antibody (Cell Signaling, Danvers, Mass.; cat. no. 4405) or with a β-actin antibody (Millipore, Billerica, Mass.; Mab1501) diluted in 5% NFDM or 5% BSA overnight, with shaking at 4° C. For EphA2 detection, the blots were probed with an anti-EphA2 polyclonal antibody (Santa Cruz Biotechnology, Santa Cruz, Calif.; sc-294). The blots were washed three times with TBST and probed with goat anti-rabbit IgG (Santa Cruz, sc-2004) or with goat anti-mouse IgG (Santa Cruz, sc-2005) linked to horseradish peroxidase (HRP). Bands were visualized on film (Pierce) using the ECL reagent, SuperSignal West Pico™ (Pierce).
As described above, we chose siRNA targeting EGFR; knockdown of this receptor is non-lethal, but has clinical relevance in the treatment of drug resistant ovarian carcinomas. To determine if we could effectively knockdown EGFR in vitro, EGFR siRNA was encapsulated at a concentration of 16.6 μg of EGFR siRNA/mg of nanogels, using the loading technique described above. […]

Substance	blue (dead) cells [1]	cell fluorescence relative to cell autofluorescence [2]	sensitivity to docetaxel versus untreated controls [3]	EGFR expression of control treatments compared to untreated cells [4]
SCR-conjugated nanogels: nanogels bearing the scrambled peptide DYPSMAMYSPSVC (SEQ ID NO 2), control (also: conjugated to nanogels) [reference compound]	not observed	only slightly greater than the cell autofluorescence background signal	–	–
YSAYPDSVPMMSC (listed as Homo sapiens) [YSA peptide]	–	–	increased sensitivity to docetaxel	diminished EGFR expression
